In US10725055B1, “Compounds for carbonyl sulfide/carbon disulfide/hydrogen sulfide release and methods of making and using the same” (University of Oregon, priority 2016, dated 2020):
Entries after “also recorded” stand apart in the source; their conditions may differ. Where two headings read alike, the source gives them in different places.

How the values were obtained:
BEAS 2B cells [1] = test system: BEAS 2B cells
BEAS 2B cells [2] = conditions: for LDH levels: 10 μM, 24 hours
Description: Lactate dehydrogenase (LDH) release was determined as a cytotoxicity assay, a measurement of necrotic cell death, as described previously. Briefly, 30 μL of supernatant was saved before addition of MTT and mixed with 100 μL of freshly prepared LDH assay reagent to reach final concentrations of 85 mM lactic acid, 1040 mM nicotinamide adenine dinucleotide (NAD+), 224 mM N-methylphenazonium methyl sulfate (PMS), 528 mM 2-(4-lodophenyl)-3-(4-nitrophenyl)-5-phenyl-2H-tetrazolium chloride (INT) and 200 mM Tris (pH 8.2). The changes in absorbance were read kinetically at 492 nm for 15 min (kinetic LDH assay) on a monochromator-based reader (Powerwave HT, Biotek) at 37° C. LDH activity values are shown as Vmax for the kinetic assays in mOD/min.

BEAS 2B cells [3] = assay: Bioenergetic analysis in cultured cells (XF24 Extracellular Flux Analyzer); format: cell-based, human; conditions: for inhibition of cellular bioenergetics: same conditions, 1, 3, 10 μM; for ATP synthesis / maximal respiration / oxygen consumption linked with basal respiration: 1, 3, 10 μM, 24 hours
Excerpt: Cells were then washed with PBS.

[4] = molecular target: CA from bovine erythrocytes (Bos taurus, UniProt P00921); format: biochemical
CA from bovine erythrocytes, sequence (P00921 whole entry): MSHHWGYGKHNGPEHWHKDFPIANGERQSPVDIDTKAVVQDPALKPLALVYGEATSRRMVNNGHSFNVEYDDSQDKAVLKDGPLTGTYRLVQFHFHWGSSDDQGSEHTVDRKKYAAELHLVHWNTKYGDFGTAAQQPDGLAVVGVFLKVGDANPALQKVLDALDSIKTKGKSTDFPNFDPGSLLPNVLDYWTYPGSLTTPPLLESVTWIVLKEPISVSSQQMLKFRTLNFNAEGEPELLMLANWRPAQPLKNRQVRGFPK

[5] = Fluorescence response of MeRho-TCA to NaSH and other RSONs
HeLa cells [6] = assay: Cytotoxicity in HeLa cells, CCK-8; conditions: 10-100 μM, 2 hour incubation
HeLa cells [7] = assay: Cytoprotection against H2O2-induced oxidative stress, CCK-8; format: cell-based; conditions: H2O2 100 μM, compound 10-50 μM, 1 hour
[8] = H2O2-triggered H2S release from PeroxyTCM/TCM compounds, H2S electrode; conditions: for H2S release efficiency: 50 μM compound; for H2S release upon treatment with H2O2: PBS pH 7.4, CA 25 μg/mL
[9] = not given; remark: listed apart in the source
HeLa cells [10] = conditions: 50 μM compound
RAW 264.7 cells = conditions: 50 μM compound
[11] = H2S release from photo-triggerable compounds under UV light, methylene blue (MB) assay; conditions: for peaking time for H2S release: 50 μM, LED UV light 365 nm, PBS pH 7.4, CA 25 μg/mL
[12] = NMR monitoring of self-immolation after TCEP reduction; format: physicochemical; conditions: 1H, 13C{1H}, 19F NMR
Excerpt: In some embodiments, an azide in the para position of the benzylthiocarbamate was used to function as the H2S-responsive “trigger” for self-immolation and COS release. To facilitate NMR identification of the products, azidobenzylthiocarbamate (donor compound 1 of FIG. 2) was made with a p-fluoroaniline payload, and the corresponding carbamate (donor compound 2 of FIG. 2) as a control donor compound. Although donor compound 2 should undergo the same self-immolative decomposition upon azide reduction, it will release CO2 rather than COS, and thus should not result in H2S donation upon reaction with CA. […] The disappearance of the benzylic peak, loss of the thiocarbonyl carbon peak, and formation of new resonances upon self-immolation by NMR spectroscopy (FIGS. 3A-3C) confirmed that self-immolation occurs. All such changes were observed within 5 minutes of TCEP addition, confirming the rapid self-immolation of the scaffold upon reduction, and were consistent with COS release from the thiocarbamate scaffold upon azide reduction.

[13] = H2S release from azidobenzyl thiocarbamate/carbamate after TCEP reduction in presence of CA, H2S electrode; conditions: buffer containing CA; for H2S release upon injection of TCEP: TCEP added
[14] = Total sulfide in whole mouse blood, monobromobimane (mBB) method; conditions: 25 μM compound, 30 minutes incubation with excess TCEP
[15] = test system: porcine liver esterase (PLE); assay: H2S release from 5 detected with H2S-responsive fluorescent probe MeRho-Az; conditions: 50 μM compound, 5 μM MeRho-Az, CA, 1 U/mL PLE
[16] = absence of esterase
[17] = test system: porcine liver esterase (PLE); assay: Esterase (PLE)-triggered H2S release, H2S-selective electrode
BEAS 2B cells [18] = test system: BEAS 2B cells; remark: listed apart in the source
[19] = at concentrations lower than 30 μM
[20] = COS gas in 10 mM PBS, pH 7.4, no CA

In the case of `O=C(CCCCCCCCC[P+](c1ccccc1)(c1ccccc1)c1ccccc1)Oc1ccc(-c2cc(=S)ss2)cc1.[Br-]` [AP39, reference compound], the “cytotoxicity, MTT assay” value (BEAS 2B cells [1]; at 30 μM) is reported as “minimal cytotoxicity”, the “cytotoxicity, MTT assay” value (BEAS 2B cells [1]; [19]) is reported as “none” and the “cytotoxicity, LDH assay” value (BEAS 2B cells [2]; at 30 μM) is reported as “minimal cytotoxicity”. For the same molecule, the “cytotoxicity, LDH assay” value (BEAS 2B cells [2]; [19]) was “none” and the “inhibition of cellular bioenergetics” value (BEAS 2B cells [3]) was “No significant inhibition of cellular bioenergetics”.
In the case of `O=C=S` [COS, carbonyl sulfide], the “H2S from COS after H2O2 addition” value [20] is reported as “rapid H2S generation”, the “H2S from COS prior to H2O2 addition” value [20] is reported as “No H2S was detected” and the “H2S production from COS” value ([4]; COS gas in deoxygenated PBS, 1 mM CTAB, pH 7.4, with CA) is reported as “rapid H25 production”. For the same molecule, the “H2S formation from COS” value ([4]; buffer in the absence of CA) was “negligible current; also recorded: minimal H2S formation”.
In the case of `C1COCCN1.COc1ccc(P(=S)(S)N2CCOCC2)cc1` (stereo not shown) [GYY4137, reference compound], the “cytotoxicity, MTT assay, compared to DMSO vehicle” value (BEAS 2B cells [1]; up to 30 μM) is reported as “no significant cytotoxicity”, the “cytotoxicity, LDH assay, compared to DMSO vehicle” value (BEAS 2B cells [2]; up to 30 μM) is reported as “no significant cytotoxicity” and the “inhibition of cellular bioenergetics” value (BEAS 2B cells [3]) is reported as “No significant inhibition of cellular bioenergetics”.
In the case of `[N-]=[N+]=Nc1ccc(COC(=S)Nc2ccc3c(c2)Oc2ccccc2C32OC(=O)c3ccccc32)cc1` (stereo not shown) [MeRho-TCA, O-(4-Azidobenzyl)-N-methylrhodolthiocarbamate], the fluorescence turn-on ([5]; 50 equivalents of NaSH, PBS, 1 mM CTAB, pH 7.4, over 90 minutes) is reported as 65 fold and the “selectivity of fluorescence response” value ([5]; vs Cys, GSH, Hcy, S2O3 2-, SO3 2-, SO4 2-, H2O2, NO) is reported as “excellent selectivity for H2S over other RSONs”.
In the case of `CC1(C)OB(c2ccc(COC(=O)Nc3ccc(F)cc3)cc2)OC1(C)C` [PeroxyCM-1], the “cell viability (cytotoxicity)” value (HeLa cells [6]) is reported as “No significant decrease in cell viability” and the “cell viability / protection against H2O2-mediated oxidative stress” value (“cell viability / protection” below) (HeLa cells [7]) is reported as “attenuated rescue from oxidative stress”.
In the case of `CC1(C)OB(c2ccc(COC(=S)Nc3ccc(F)cc3)cc2)OC1(C)C` [PeroxyTCM-1], the “H2S release with H2O2 in the absence of CA” value (H2O2 10 equiv, no CA) is reported as “positive H2S release response”, the H2S release efficiency ([8]; 250 μM H2O2) is reported as 80% and the H2S release efficiency ([8]; 500 μM H2O2) is reported as 60%. The “H2S release after incubation with H2O2, O2−, or ONOO−” value ([9]; 50 μM compound, RSONS 500 μM, CA 25 μg/mL, 20 min) was “resulted in H2S release”, the “H2S release after incubation with other RSONS” value ([9]; ClO−, HO, 1O2, TBHP, tBuO, Cys, GSH, GSSG, GSNO, NO2, SO4 2−, S2O3 2−, NO, HNO) was “failed to release H2S” and the “cell viability (cytotoxicity)” value (HeLa cells [6]) was “No significant decrease in cell viability”. The “cell viability / protection” value (HeLa cells [7]) was “significant dose-dependent increase of cell viability”, the “HSN2 fluorescence after addition of H2O2” value (HeLa cells [10]; H2O2 25 μM or 50 μM) was “H2O2 dose-dependent increase in HSN2 fluorescence” and the “HSN2 fluorescence in the absence of H2O2” value (HeLa cells [10]; HSN2 5 μM) was “no HSN2 fluorescence was observed”. For the same molecule, the “HSN2 signal after addition of PMA” value (RAW 264.7 cells; 500 nM PMA) was “significant increase in signal from HSN2” and the “HSN2 signal in the absence of PMA” value (RAW 264.7 cells; HSN2 5 μM) was “no fluorescent signal from HSN2”.
With `O=C(Nc1ccc(F)cc1)OCc1ccccc1[N+](=O)[O-]` [PhotoCM-1] the “H2S release upon UV irradiation with CA” value ([11]; UV 10 min, CA 25 μg/mL) was “no H2S release was observed”.
With `O=[N+]([O-])c1ccccc1COC(=S)Nc1ccc(F)cc1` [PhotoTCM-1] the “peaking time for H2S release” value [11] was ~10 min, the “H2S generation in the absence of UV irradiation” value ([11]; PBS pH 7.4, no UV) was “did not generate H2S” and the “H2S release upon UV irradiation with CA” value ([11]; UV 10 min, CA 25 μg/mL) was “significant enhancement of H2S concentration”. For the same molecule, the “H2S upon UV irradiation in the absence of CA” value ([11]; UV 10 min, no CA) was “low levels of H2S”, the “H2S upon UV irradiation with CA and acetazolamide (AAA)” value ([11]; UV, CA 25 μg/mL, AAA 10 μM) was “significantly reduced” and the “H2S generation with cellular nucleophiles” value ([11]; cysteine, homocysteine, GSH, GSSG, serine, lysine, in the presence of CA) was “does not generate H2S”.
For `COc1cc(COC(=S)Nc2ccc(F)cc2)c([N+](=O)[O-])cc1OC` [PhotoTCM-2], the “peaking time for H2S release” value [11] was ~10 min.
For `Fc1ccc(NC(=S)OCc2ccccc2)cc1` [TCM-1], the “H2S release upon treatment with H2O2” value [8] was “did not release H2S”, the “cell viability (cytotoxicity)” value (HeLa cells [6]) was “No significant decrease in cell viability” and the “cell viability / protection” value (HeLa cells [7]) was “no protection”. For the same molecule, the “H2S release upon UV irradiation with CA” value ([11]; UV 10 min, CA 25 μg/mL) was “did not release H2S”.
For `Cc1ccc(NC(=S)OCc2ccccc2)cc1` [TCM-2], the “H2S release upon treatment with H2O2” value [8] was “did not release H2S”.
In the case of `[N-]=[N+]=Nc1ccc(COC(=S)Nc2ccc(F)cc2)cc1` [compound 1, O-(4-Azidobenzyl)-N-(4-fluorophenyl)thiocarbamate], the “time to NMR changes showing self-immolation after TCEP addition” value [12] is reported as ≤ 5 min, the “H2S release upon injection of TCEP” value [13] is reported as “rapid release of H2S” and the “H2S formation before TCEP” value ([13]; no TCEP) is reported as “did not result in H2S formation; also recorded: no H2S is formed”.
With `[N-]=[N+]=Nc1ccc(COC(=O)Nc2ccc(F)cc2)cc1` [compound 2, O-(4-Azidobenzyl)-N-(4-fluorophenyl)carbamate] the “H2S release upon injection of TCEP” value [13] was “no H2S was produced”.
With `Cc1ccc(NC(=S)OCc2ccccc2)cc1` [compound 3, O-(4-Benzyl)-N-tolylthiocarbamate] the “total sulfide levels in blood” value [14] was “Only samples containing donor 4 with the azide trigger increased total sulfide levels”.
In the case of `Cc1ccc(NC(=S)OCc2ccc(N=[N+]=[N-])cc2)cc1` [compound 4], the “total sulfide levels in blood” value [14] is reported as “increased total sulfide levels in blood”.
For `Cc1ccc(NC(=S)OCc2ccc(OC(=O)C(C)(C)C)cc2)cc1` [compound 5], the “fluorescence response of MeRho-Az” value [15] was “fluorescence turn-on consistent with H2S release”, the “stability in aqueous solution” value [16] was “stable” and the LDH levels (BEAS 2B cells [2]) was “increase in LDH levels”. The ATP synthesis (BEAS 2B cells [3]) was “negatively affected”, the maximal respiration (BEAS 2B cells [3]) was “negatively affected” and the “oxygen consumption linked with basal respiration” value (“oxygen consumption linked” for short) (BEAS 2B cells [3]) was “negatively affected”. The “H2S release with PLE” value ([17]; 1 U/mL PLE in the presence of CA) was “immediate H2S release”, the “H2S release with increased PLE” value ([17]; 20 U/mL PLE, otherwise identical conditions) was “significantly faster H2S release” and the “rate of H2S production with acetazolamide (AAA)” value ([17]; PLE, CA, CA inhibitor AAA) was “significantly reduced the rate of H2S production”. For the same molecule, the “H2S generation without esterase” value ([17]; pH 7.4 PBS, CA 25 μg/mL, no PLE) was “did not result in H2S generation” and the “cytotoxicity during live cell imaging” value (BEAS 2B cells [18]) was “high cytotoxicity”.
In the case of `Cc1ccc(NC(=O)OCc2ccc(OC(=O)C(C)(C)C)cc2)cc1` [compound 6], the LDH levels (BEAS 2B cells [2]) is reported as “not observed”, the ATP synthesis (BEAS 2B cells [3]) is reported as “increases” and the maximal respiration (BEAS 2B cells [3]) is reported as “did not negatively impact”. For the same molecule, the “oxygen consumption linked” value (BEAS 2B cells [3]) was “increases”.
In the case of `NC(=S)OCc1ccccc1` [compound 7], the “cell viability (MTT reduction)” value (BEAS 2B cells [1]; 10 μM, 24 hours) is reported as “not observed”, the LDH levels (BEAS 2B cells [2]) is reported as “not observed” and the ATP synthesis (BEAS 2B cells [3]) is reported as “no effect”. For the same molecule, the maximal respiration (BEAS 2B cells [3]) was “only slightly decreased maximal respiration at 10 μM”, the “oxygen consumption linked” value (BEAS 2B cells [3]) was “no effect” and the “direct cleavage of benzyl thiocarbamate moiety by PLE” value ([17]; control lacking the ester trigger) was “not cleaved directly by PLE”.
